In patent publication US20250289804A1, “SUBSTITUTED INDOLE COMPOUNDS AND METHODS OF USE THEREOF” (NOVARTIS PHARMA AG, priority 2021, published 2025):

Legend:
human C3bBb = human C3bBb (Homo sapiens (Human), UniProt P00751); test: Human C3bBb enzyme assay (C3a generation from C3, ELISA); type: biochemical; settings: starred values: assay conducted with 1 nM C3b:Bb enzyme; read-out: Human C3b:Bb IC50 Avg
How it was run: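 C3bBb was preformed from human C3b, CFB and CFD at 1 μM each (30 min, RT) in PBS pH 7.4 with 100 μM NiCl2 and 0.05% CHAPS. Then 3 nM complex with 1 μM human C3 was incubated with compound for 1 h at RT. C3a was quantified by ELISA against a standard curve, and IC50 came from a 10-point 4-parameter fit.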

[1] = tested on: MAC formation in normal human serum; test: Human serum MAC formation assay (zymosan-coated plates, 50% normal human serum); settings: 50% normal human serum with EGTA, 37° C. 30 minutes
How it was run: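 Compounds preincubated 15 min at RT with 50% normal human serum in gelatin buffer plus 20 mM EGTA, then complement activated 30 min at 37 °C on zymosan-coated plates. C9 neoepitope ELISA, fluorogenic readout. Percent inhibition vs EDTA-serum baseline and EGTA-serum maximum; IC50 from 4-parameter fit of 10-point curves.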

C3G patients = settings: after 12 weeks of treatment; cited from earlier work

human C3bBb, sequence (P00751 260-764): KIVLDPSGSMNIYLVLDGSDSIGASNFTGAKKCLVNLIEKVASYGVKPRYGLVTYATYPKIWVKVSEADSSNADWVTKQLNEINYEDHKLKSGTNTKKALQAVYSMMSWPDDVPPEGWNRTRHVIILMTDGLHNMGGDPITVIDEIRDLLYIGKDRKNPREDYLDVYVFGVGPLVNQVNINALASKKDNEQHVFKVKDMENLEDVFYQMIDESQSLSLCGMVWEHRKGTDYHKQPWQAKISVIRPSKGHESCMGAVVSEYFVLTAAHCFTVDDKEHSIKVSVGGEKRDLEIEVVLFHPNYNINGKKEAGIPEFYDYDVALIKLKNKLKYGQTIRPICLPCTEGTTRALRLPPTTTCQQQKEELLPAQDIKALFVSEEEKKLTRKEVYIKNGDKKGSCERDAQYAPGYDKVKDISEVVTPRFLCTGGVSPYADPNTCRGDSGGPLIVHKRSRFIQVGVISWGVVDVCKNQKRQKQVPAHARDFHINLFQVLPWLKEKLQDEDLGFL
human C3bBb, sequence (P01024 23-667 partner): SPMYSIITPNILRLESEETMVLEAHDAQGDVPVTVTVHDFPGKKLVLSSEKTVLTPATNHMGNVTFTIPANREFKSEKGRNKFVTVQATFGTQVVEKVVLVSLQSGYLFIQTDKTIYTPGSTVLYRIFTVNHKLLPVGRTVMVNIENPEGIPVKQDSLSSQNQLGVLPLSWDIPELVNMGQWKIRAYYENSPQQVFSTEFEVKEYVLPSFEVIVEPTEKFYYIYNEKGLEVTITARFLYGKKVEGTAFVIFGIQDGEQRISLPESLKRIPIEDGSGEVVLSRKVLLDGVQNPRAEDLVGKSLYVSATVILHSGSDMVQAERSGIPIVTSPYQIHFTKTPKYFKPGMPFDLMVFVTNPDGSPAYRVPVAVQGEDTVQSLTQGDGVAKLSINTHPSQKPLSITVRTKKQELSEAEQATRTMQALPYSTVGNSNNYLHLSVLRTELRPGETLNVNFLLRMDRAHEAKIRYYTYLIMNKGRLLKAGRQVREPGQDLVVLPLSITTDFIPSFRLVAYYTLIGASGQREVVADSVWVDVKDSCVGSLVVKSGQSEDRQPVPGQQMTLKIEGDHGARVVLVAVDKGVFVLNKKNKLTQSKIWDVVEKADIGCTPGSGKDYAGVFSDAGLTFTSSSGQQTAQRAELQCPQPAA
human C3bBb, sequence (P01024 749-1663 partner): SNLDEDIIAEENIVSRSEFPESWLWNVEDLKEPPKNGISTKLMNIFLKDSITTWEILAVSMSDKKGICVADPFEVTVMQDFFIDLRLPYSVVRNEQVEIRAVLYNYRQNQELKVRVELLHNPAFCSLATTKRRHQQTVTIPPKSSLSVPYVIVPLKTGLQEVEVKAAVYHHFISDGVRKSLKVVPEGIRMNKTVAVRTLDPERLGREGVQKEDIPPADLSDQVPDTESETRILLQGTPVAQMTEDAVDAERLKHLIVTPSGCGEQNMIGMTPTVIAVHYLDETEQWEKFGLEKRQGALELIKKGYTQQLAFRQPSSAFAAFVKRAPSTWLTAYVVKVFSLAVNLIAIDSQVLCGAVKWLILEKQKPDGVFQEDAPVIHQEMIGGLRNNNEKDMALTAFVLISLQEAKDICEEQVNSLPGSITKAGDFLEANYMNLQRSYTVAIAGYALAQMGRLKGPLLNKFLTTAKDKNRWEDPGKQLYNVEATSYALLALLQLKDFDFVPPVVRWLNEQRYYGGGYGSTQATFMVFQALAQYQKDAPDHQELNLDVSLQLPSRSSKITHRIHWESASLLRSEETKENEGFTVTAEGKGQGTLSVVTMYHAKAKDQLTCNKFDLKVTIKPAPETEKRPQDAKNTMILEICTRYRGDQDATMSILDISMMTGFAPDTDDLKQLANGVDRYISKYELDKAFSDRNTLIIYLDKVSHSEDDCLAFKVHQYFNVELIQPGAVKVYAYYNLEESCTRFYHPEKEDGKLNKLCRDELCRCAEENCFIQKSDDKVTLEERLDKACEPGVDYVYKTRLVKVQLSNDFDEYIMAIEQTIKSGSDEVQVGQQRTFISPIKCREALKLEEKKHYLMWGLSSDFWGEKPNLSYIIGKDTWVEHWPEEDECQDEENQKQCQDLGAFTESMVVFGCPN

| Structure (SMILES) | IC50 (human C3bBb) [nM] | IC50 [1] [nM] | efficacy (proteinuria) (C3G patients) |
| --- | --- | --- | --- |
| Cc1cc(C2CC2)c(CN2CC[C@H](N3CC(C(F)(F)F)C3)C[C@H]2c2ccc(C(=O)O)cc2)c2cc[nH]c12 [Example 76, 4-((2S,4S)-1-((5-cyclopropyl-7-methyl-1H-indol-4-yl)methyl)-4-(3-(trifluoromethyl)azetidin-1-yl)piperidin-2-yl)benzoic acid] | < 10 | 100 to 200 | – |
| Cc1cc(C2CC2)c(CN2CC[C@H](N3CC(C#N)C3)C[C@H]2c2ccc(C(=O)O)cc2)c2cc[nH]c12 [Example 77, 4-((2S,4S)-4-(3-cyanoazetidin-1-yl)-1-((5-cyclopropyl-7-methyl-1H-indol-4-yl)methyl)piperidin-2-yl)benzoic acid] | < 10 | < 100 | – |
| Cc1cc(C2CC2)c(CN2CC[C@H](N3CC4(CC4)C3)C[C@H]2c2ccc(C(=O)O)cc2)c2cc[nH]c12 [Example 78, 4-((2S,4S)-1-((5-cyclopropyl-7-methyl-1H-indol-4-yl)methyl)-4-(5-azaspiro[2.3]hexan-5-yl)piperidin-2-yl)benzoic acid] | 25 to 50 | 100 to 200 | – |
| COc1cc(C)c2[nH]ccc2c1CN1CC[C@H](N2CC(S(C)(=O)=O)C2)C[C@H]1c1ccc(C(=O)O)cc1 [Example 79, 4-((2S,4S)-1-((5-methoxy-7-methyl-1H-indol-4-yl)methyl)-4-(3-(methylsulfonyl)azetidin-1-yl)piperidin-2-yl)benzoic acid] | 50 to 100 | 100 to 200 | – |
| COc1cc(C)c2[nH]ccc2c1CN1CC[C@H](N2CC(F)C2)C[C@H]1c1ccc(C(=O)O)cc1 [Example 80, 4-((2S,4S)-4-(3-fluoroazetidin-1-yl)-1-((5-methoxy-7-methyl-1H-indol-4-yl)methyl)piperidin-2-yl)benzoic acid] | 25 to 50 | 200 to 300 | – |
| COc1cc(C)c2[nH]ccc2c1CN1CC[C@H](N2CC(C(F)(F)F)C2)C[C@H]1c1ccc(C(=O)O)cc1 [Example 81, 4-((2S,4S)-1-((5-methoxy-7-methyl-1H-indol-4-yl)methyl)-4-(3-(trifluoromethyl)azetidin-1-yl)piperidin-2-yl)benzoic acid] | < 10 | < 100 | – |
| COc1cc(C)c2[nH]ccc2c1CN1CC[C@H](OC2COC2)C[C@H]1c1ccc(C(=O)O)cc1 [Example 82, 4-((2S,4S)-1-((5-methoxy-7-methyl-1H-indol-4-yl)methyl)-4-(oxetan-3-yloxy)piperidin-2-yl)benzoic acid] | 10 to 25 | 200 to 300 | – |
| COc1cc(C)c2[nH]ccc2c1CN1CC[C@H](OCC(F)F)C[C@H]1c1ccc(C(=O)O)cc1 [Example 83, 4-((2S,4S)-4-(2,2-difluoroethoxy)-1-((5-methoxy-7-methyl-1H-indol-4-yl)methyl)piperidin-2-yl)benzoic acid] | < 10 | 100 to 200 | – |
| COc1cc(C)c2[nH]ccc2c1CN1CC[C@H](OC2CCC2)C[C@H]1c1ccc(C(=O)O)cc1 [Example 84, 4-((2S,4S)-4-cyclobutoxy-1-((5-methoxy-7-methyl-1H-indol-4-yl)methyl)piperidin-2-yl)benzoic acid] | 25 to 50 | 200 to 300 | – |
| COc1cc(C)c2[nH]ccc2c1CN1CC[C@H](OCC(F)(F)F)C[C@H]1c1ccc(C(=O)O)cc1 [Example 85, 4-((2S,4S)-1-((5-methoxy-7-methyl-1H-indol-4-yl)methyl)-4-(2,2,2-trifluoroethoxy)piperidin-2-yl)benzoic acid] | < 10 | 100 to 200 | – |
| CCO[C@H]1CCN(Cc2c(OC)cc(C)c3[nH]ccc23)[C@H](c2ccc(C(=O)O)cc2)C1 [iptacopan] | – | – | reduced proteinuria |
